Source: patent US20170312205A1, “USE OF ESTERS OF N-ACYLATED DERIVATIVES OF AMINO ACIDS AND POLYOLS AS AN ANTI-AGEING AGENT FOR HUMAN SKIN” (SOCIETE D'EXPLOITATION DE PRODUITS POUR LES INDUSTRIES …, priority 2014, published 2017)

System: normal human fibroblasts
Test: in vitro study of migration of human fibroblasts (Oris migration plates, Calcein AM labeling)
Type: cell-based
Conditions: for mean migration distance of the cells (Dmigr): 40 hours incubation at 37° C., mitomycin C pretreated, quadruplicate; for [(Dmigr) − (Dmigr)control]/(Dmigr)control (percentage of migratory effect relative to the control): 40 hours incubation, vs FCS culture control
Description: The fibroblast migration test is a test commonly used in the cosmetics and pharmaceutical sector and is especially described in the international patent application published under the number WO 2010/056908 A1. It allows in vitro reproduction of the phenomenon of fibroblast migration; a decrease in the migratory capacities of the fibroblasts being reported as associated with aging of the skin (1) (4).
Normal human fibroblasts at the R5 passage were amplified in a T75 culture flask and then inoculated at 25 000 cells/well in specific culture plates. These plates are dedicated to migration (Oris™ from Platypus), integrating a central zone without initial deposition of cells (stoppers). After 96 hours of plate amplification and 2 hours before the treatment, all the wells were treated with mitomycin C (2 hours at […]), so as to stop the cell proliferation, and thus to observe only the migration phenomenon. The stoppers were removed, and the references, the products or standard medium for fibroblasts containing 2% fetal calf serum (FCS) were applied to the cells under 100 μl, and then incubated for 40 hours at 37° C. under 5% CO2. Each condition was performed in quadruplicate.
On conclusion of the incubation, the cells were labeled with Calcein AM (5 μM, 20 minutes at 37° C.), so as to visualize the viable cells by fluorescence (revelation of the cytoplasm). Photos were taken, after having inserted a black screen under the culture plates, so as to visualize only the zone where the cells were not deposited. Thus, only the cells which had migrated were photographed (×4 objective lens; with a ×0.7 reducer on the camera adapter). The mean migration distance of the cells (Dmigr) was measured with NIS-Elements-BR 3.0 (4 cells). The means and standard deviations of the distances were calculated on the quadruplicates. The percentages of migratory effect relative to the control, and also the statistics (Student test) were also calculated.

Epidermal Growth Factor [Epidermal Growth Factor (EGF)]
mean migration distance of the cells (Dmigr) (EGF 10 ng/ml): 203 ± 20 μm
[(Dmigr) − (Dmigr)control]/(Dmigr)control (percentage of migratory effect relative to the control) (EGF 10 ng/ml): +21%
mean migration distance of the cells (Dmigr) (EGF 50 ng/ml): 212 ± 8 μm
[(Dmigr) − (Dmigr)control]/(Dmigr)control (percentage of migratory effect relative to the control) (EGF 50 ng/ml): +26%
migration distance of the fibroblasts (result in words) (EGF at 10 and 50 ng/ml with normal human fibroblasts, validates the model): increase in the migration distance
